The record followed here is ChEMBL document CHEMBL6074711, “Design, Synthesis, and Activity Evaluation of C-23-Modified 5-O-Mycaminosyltylonolide Derivatives” (ACS Med Chem Lett, 2024).

Molecules are shown by their SMILES. ≈ marks a conversion by molar mass, not a printed value.

What all share (assay type): functional
In test [1] the test system is Staphylococcus aureus. As to the kind of experiment: Antibacterial activity against Staphylococcus aureus ATCC25923 under 10^6 CFU/ml of bacterial inoculum culture by absorbance based assay.
The subject of test [2] is Staphylococcus aureus. As to the kind of experiment: Antibacterial activity against Staphylococcus aureus ATCC25923 under 10^5 CFU/ml of bacterial inoculum culture by absorbance based assay.
In test [3] the test system is Staphylococcus aureus. As to the kind of experiment: Antibacterial activity against Staphylococcus aureus ATCC25923 incubated for 16 to 20 hrs by broth microdilution method. Conditions: time 16-20 hrs. A general note: Broth dilution looks for growth in wells or tubes with falling amounts of substance.
The test system of test [4] is Stenotrophomonas maltophilia. As to the kind of experiment: Antibacterial activity against Stenotrophomonas maltophilia ATCC17808 incubated for 16 to 20 hrs by broth microdilution method. The conditions noted are these: time 16-20 hrs.
Test [5] concerns Staphylococcus aureus. As to the kind of experiment: Antibacterial activity against Staphylococcus aureus ATCC25923 under 10^4 CFU/ml of bacterial inoculum culture by absorbance based assay.
For test [6], the system named is Staphylococcus aureus. Briefly: Antibacterial activity against Staphylococcus aureus ATCC25923 under 10^7 CFU/ml of bacterial inoculum culture by absorbance based assay.
A further test concerns Escherichia coli. As to the kind of experiment: Antibacterial activity against Escherichia coli ATCC25922 incubated for 16 to 20 hrs by broth microdilution method. Conditions: time 16-20 hrs.
A further test has as its system Enterococcus faecalis. Briefly: Antibacterial activity against Enterococcus faecalis ATCC29212 incubated for 16 to 20 hrs by broth microdilution method. The conditions noted are these: time 16-20 hrs.

As for `C[C@@H](O)[C@H]1C(=O)N2C(C(=O)O)=C(S[C@@H]3CN[C@H](C(=O)N(C)C)C3)[C@H](C)[C@H]12` [MEROPENEM], the MIC with Staphylococcus aureus [1] stood at 1 µg/mL (≈ 2.61 µM); in the test with Staphylococcus aureus [2], 0.5 µg/mL (≈ 1.3 µM); against Staphylococcus aureus [3], 0.063 µg/mL (≈ 0.164 µM); in test [4], 0.125 µg/mL (≈ 0.326 µM); against Staphylococcus aureus [5], 0.25 µg/mL (≈ 0.652 µM); with Staphylococcus aureus [6] it was 2 µg/mL (≈ 5.22 µM). For the same compound, the MIC against Escherichia coli turned out to be 0.125 µg/mL (≈ 0.326 µM); against Enterococcus faecalis, 0.063 µg/mL (≈ 0.164 µM).

For the compound `CC[C@H]1OC(=O)C[C@@H](O)[C@H](C)[C@@H](O[C@@H]2O[C@H](C)[C@@H](O)[C@H](N(C)C)[C@H]2O)[C@@H](CCN(C)Cc2cn(-c3cnc4ccccc4c3)nn2)C[C@@H](C)C(=O)/C=C/C(C)=C/[C@@H]1CNc1ccc(Br)cc1`, the MIC against Staphylococcus aureus [3] came out at 2 µg/mL (≈ 2.05 µM); in test [4], 4 µg/mL (≈ 4.1 µM); against Escherichia coli it was 4 µg/mL (≈ 4.1 µM); in the test with Enterococcus faecalis it was 4 µg/mL (≈ 4.1 µM).

For `CC[C@H]1OC(=O)C[C@@H](O)[C@H](C)[C@@H](O[C@@H]2O[C@H](C)[C@@H](O)[C@H](N(C)C)[C@H]2O)[C@@H](CCNCc2cn(-c3cnc4ccccc4c3)nn2)C[C@@H](C)C(=O)/C=C/C(C)=C/[C@@H]1CNCc1ccc(Cl)cc1`, the MIC in the test on Staphylococcus aureus [3] is 1 µg/mL (≈ 1.07 µM); in test [4] it was 1 µg/mL (≈ 1.07 µM); in the test on Escherichia coli, 2 µg/mL (≈ 2.15 µM); against Enterococcus faecalis it was 2 µg/mL (≈ 2.15 µM).

Turning to `CC[C@H]1OC(=O)C[C@@H](O)[C@H](C)[C@@H](O[C@@H]2O[C@H](C)[C@@H](O)[C@H](N(C)C)[C@H]2O)[C@@H](CCN(C)Cc2cn(-c3cnc4ccccc4c3)nn2)C[C@@H](C)C(=O)/C=C/C(C)=C/[C@@H]1CN(CC)Cc1ccccc1`, the MIC was found to be 2 µg/mL (≈ 2.13 µM) with Staphylococcus aureus [3], 2 µg/mL (≈ 2.13 µM) in test [4], 8 µg/mL (≈ 8.53 µM) with Escherichia coli and 4 µg/mL (≈ 4.26 µM) in the test with Enterococcus faecalis.

Consider `CC[C@H]1OC(=O)C[C@@H](O)[C@H](C)[C@@H](O[C@@H]2O[C@H](C)[C@@H](O)[C@H](N(C)C)[C@H]2O)[C@@H](CCN(C)Cc2cn(-c3cnc4ccccc4c3)nn2)C[C@@H](C)C(=O)/C=C/C(C)=C/[C@@H]1CNc1ccc(C)cc1`, for which the MIC against Staphylococcus aureus [3] came to 4 µg/mL (≈ 4.39 µM); in test [4] it was 4 µg/mL (≈ 4.39 µM); against Escherichia coli, 4 µg/mL (≈ 4.39 µM); with Enterococcus faecalis, 8 µg/mL (≈ 8.79 µM).

With `CC[C@H]1OC(=O)C[C@@H](O)[C@H](C)[C@@H](O[C@@H]2O[C@H](C)[C@@H](O)[C@H](N(C)C)[C@H]2O)[C@@H](CCN(C)Cc2cn(-c3cnc4ccccc4c3)nn2)C[C@@H](C)C(=O)/C=C/C(C)=C/[C@@H]1CNCc1cc(F)cc(F)c1`, the MIC (in the test with Staphylococcus aureus [3]; in test [4]; with Escherichia coli; in the test on Enterococcus faecalis) was 1 µg/mL (≈ 1.06 µM) throughout.

As to `CC[C@H]1OC(=O)C[C@@H](O)[C@H](C)[C@@H](O[C@@H]2O[C@H](C)[C@@H](O)[C@H](N(C)C)[C@H]2O)[C@@H](CCNCc2cn(-c3cnc4ccccc4c3)nn2)C[C@@H](C)C(=O)/C=C/C(C)=C/[C@@H]1CN(C)Cc1ccccc1`, the MIC against Staphylococcus aureus [3] is 0.5 µg/mL (≈ 0.549 µM); in test [4], 2 µg/mL (≈ 2.2 µM); against Escherichia coli, 2 µg/mL (≈ 2.2 µM); in the test on Enterococcus faecalis, 2 µg/mL (≈ 2.2 µM).

For the compound `CC[C@H]1OC(=O)C[C@@H](O)[C@H](C)[C@@H](O[C@@H]2O[C@H](C)[C@@H](O)[C@H](N(C)C)[C@H]2O)[C@@H](CCNCc2cn(-c3cnc4ccccc4c3)nn2)C[C@@H](C)C(=O)/C=C/C(C)=C/[C@@H]1CNCc1ccccc1`, the MIC in the test on Staphylococcus aureus [3] is 2 µg/mL (≈ 2.23 µM); in test [4] it was 1 µg/mL (≈ 1.12 µM); with Escherichia coli it was 1 µg/mL (≈ 1.12 µM); in the test on Enterococcus faecalis it was 2 µg/mL (≈ 2.23 µM).

With `CC[C@H]1OC(=O)C[C@@H](O)[C@H](C)[C@@H](O[C@@H]2O[C@H](C)[C@@H](O)[C@H](N(C)C)[C@H]2O)[C@@H](CCN(C)Cc2cn(-c3cnc4ccccc4c3)nn2)C[C@@H](C)C(=O)/C=C/C(C)=C/[C@@H]1CNCc1ccc(C)cc1`, the MIC turned out to be 1 µg/mL (≈ 1.08 µM) in the test on Staphylococcus aureus [3], 2 µg/mL (≈ 2.16 µM) in test [4], 2 µg/mL (≈ 2.16 µM) in the test on Escherichia coli and 4 µg/mL (≈ 4.33 µM) in the test on Enterococcus faecalis.

Regarding `CC[C@H]1OC(=O)C[C@@H](O)[C@H](C)[C@@H](O[C@@H]2O[C@H](C)[C@@H](O)[C@H](N(C)C)[C@H]2O)[C@@H](CCNCc2cn(-c3cnc4ccccc4c3)nn2)C[C@@H](C)C(=O)/C=C/C(C)=C/[C@@H]1CNc1ccc(Br)cc1`, the MIC against Staphylococcus aureus [3] came out at 2 µg/mL (≈ 2.08 µM); in test [4], 1 µg/mL (≈ 1.04 µM); in the test with Escherichia coli, 1 µg/mL (≈ 1.04 µM); against Enterococcus faecalis, 2 µg/mL (≈ 2.08 µM).

By MIC is commonly meant the lowest concentration found to suppress growth. Higher therefore signals a less susceptible organism.
